{
  "source": "patent US5807827A",
  "about": "“Des-Tyr dynorphin analogues” (Des-Tyr Dynorphin Partnership, priority 1997, dated 1998)",
  "key": {"[1]": {"system": "opioid receptor", "settings": "cited from earlier work"}, "[2]": {"system": "macrophage-colony stimulating factor", "settings": "mice treated with chronic morphine; cited from earlier work"}, "[3]": {"system": "morphine tolerant (addicted) animals", "experiment": "Naloxone-precipitated narcotic withdrawal (withdrawal jumping) in morphine pellet-implanted animals", "assay_type": "in vivo, mice", "description": "Morphine tolerance was established by implanting morphine pellets, 75 mg base, subcutaneously by the method of Way et al., J. Pharmac. Exp. Ther., 167, pp. 1-8 (1969), incorporated herein by reference. The drug used was morphine sulfate (Mallinckrodt Chemical Works, St. Louis, Mo.). The ED50 values, their 95% confidence limits and significance of the potency ratio between two ED50. values were determined by the method of Litchfield and Wilcoxon, J. Pharmac. Exp. Ther., 96, 99-113 (1949), incorporated herein by reference.\nThe morphine tolerant (addicted) animals had pellets implanted for three days. The animals were then challenged with naloxone doses (while the morphine pellet remained in place). […] Table 1 summarizes the data for the control animals and for groups of animals treated with three different peptides. Each peptide was in a dose of 5 μmol/kg i.v. before administration of the naloxone.\nHowever, when any of the three peptides shown in Table 1 was administered five minutes before administration of the naloxone, then much more naloxone was needed to precipitate the animal into a state of narcotic withdrawal. This means that each of the three peptides shown in Table 1 caused the addicted animal to be not as dependent on morphine as it would be without such pretreatment.\nThe animals and test procedures used were analogous to those described in Example 1. […]"}, "[4]": {"system": "morphine tolerant (that is, addicted) mice", "experiment": "Tail-flick antinociceptive activity of morphine in morphine tolerant animals", "assay_type": "in vivo", "settings": "control 2: addicted animals, no peptide", "description": "(§1) Analgesia was measured by the tail-flick method of D'Amour and Smith, J. Pharmac. Exp. Ther. , 72, pp. 74-79 (1941), incorporated herein by reference, as modified by Tulunay and Takemori, J. Pharmac. Exp. Ther., 190, pp. 395-400 (1974), incorporated herein by reference. For ED50 (e.g., effective does for 50% of the test group) determinations, the animals' responses were made quantal by establishing an endpoint which represented a significant increase in reaction time. The endpoint was an increase in reaction time of an individual animal of greater than 3 SD (e.g., standard deviation) of the control mean reaction time for all animals used in the assay. The usual control mean reaction time was 3.1±0.05 sec. Nonresponding animals were removed from the heat stimulus when reaction time exceeded 10 sec. to avoid tail damage.\n(§2) Drugs were injected 30 minutes prior to testing, unless otherwise indicated. Morphine was injected subcutaneously (s.c.) whereas the peptides were injected (i.v.) in […] saline.\n(§3) Morphine tolerance was established by implanting morphine pellets, 75 mg base, subcutaneously by the method of Way et al., J. Pharmac. Exp. Ther., 167, pp. 1-8 (1969), incorporated herein by reference. The drug used was morphine sulfate (Mallinckrodt Chemical Works, St. Louis, Mo.). […]"}, "[5]": {"system": "naive, unaddicted (that is, normal) animals", "experiment": "Tail-flick antinociceptive activity of morphine in naive animals", "assay_type": "in vivo, mice", "settings": "control 1: naive, no peptide", "description": "as §1, §2, §3"}, "[6]": {"system": "hosts tolerant to narcotic analgesic", "settings": "cited from earlier work"}},
  "note": "Ends that are not written are not given here.",
  "data": [
    {"molecule": "Gly-Gly-Phe-Leu-Arg-Arg-Ile-Arg-Pro-Lys-Leu-Lys [des-Tyr Dyn A (1-13)]", "values": [
      {"measurement": "Competition in assays with various ligands", "setting": "[1]", "value": "did not compete at all"}
    ]},
    {"molecule": "Tyr-Gly-Gly-Phe-Leu-Arg-Arg-Ile-Arg-Pro (YGGFLRRIRP-NH2) [SEQ ID NO:3]", "values": [
      {"measurement": "Block of opioid inhibition of macrophage-colony stimulating factor", "setting": "[2]", "value": "block the opioid inhibition of macrophage-colony stimulating factor of morphine in a dose-dependent manner"}
    ]},
    {"molecule": "C=CCN1CC[C@]23c4c5ccc(O)c4O[C@H]2C(=O)CC[C@@]3(O)[C@H]1C5", "note": "[Naloxone, naloxone]", "values": [
      {"measurement": "ED50", "setting": "[3]; Mus musculus, control addicted animals, no peptide (base line)", "value": 79, "unit": "µmol/kg"}
    ]},
    {"molecule": "CN1CC[C@]23c4c5ccc(O)c4O[C@H]2[C@@H](O)C=C[C@H]3[C@H]1C5", "note": "[Morphine, morphine]", "values": [
      {"measurement": "Tolerance Index", "setting": "[4]; relative to naive control", "value": "8.5 (5.7-12.--)"},
      {"measurement": "Morphine ED50", "setting": "[4]; tail flick", "value": "55.6 (42.6-73.5) μmol/kg s.c."},
      {"measurement": "Morphine ED50", "setting": "[5]", "value": "6.5 (5.0-8.9) μmol/kg s.c."}
    ]},
    {"molecule": "GFLRRIRPKLK [Dyn (3-13), Gly-Phe-Leu-Arg-Arg-Ile-Arg-Pro-Lys-Leu-Lys]", "values": [
      {"measurement": "Observed behaviour of treated animals", "setting": "[3]; Example 3", "value": "lethargic and exhibited partial paralysis of their hind quarters"}
    ]},
    {"molecule": "Tyr-Gly-Gly-Phe-Leu-Arg-Arg-Ile-Arg-Pro-Lys-Leu-Lys (YGGFLRRIRPKLK) [SEQ ID NO:2]", "values": [
      {"measurement": "Block of opioid inhibition of macrophage-colony stimulating factor", "setting": "[2]", "value": "block the opioid inhibition of macrophage-colony stimulating factor of morphine in a dose-dependent manner"},
      {"measurement": "Effect on analgesic effect of narcotic analgesic", "setting": "[6]", "value": "potentiates the analgesic effect in tolerant hosts"}
    ]}
  ]
}
